# Where a name gives a salt, the structure may show the parent alone.
# Target: T1, human EP3 receptor (Homo sapiens, UniProt P43115)
# T1 construct: expressed in transfected cells; host or cells: CHO K1 (Chinese Hamster Ovary), stably co-transfected with Galpha16 and mitochondrial clytin
# T1 sequence (P43115 1-390): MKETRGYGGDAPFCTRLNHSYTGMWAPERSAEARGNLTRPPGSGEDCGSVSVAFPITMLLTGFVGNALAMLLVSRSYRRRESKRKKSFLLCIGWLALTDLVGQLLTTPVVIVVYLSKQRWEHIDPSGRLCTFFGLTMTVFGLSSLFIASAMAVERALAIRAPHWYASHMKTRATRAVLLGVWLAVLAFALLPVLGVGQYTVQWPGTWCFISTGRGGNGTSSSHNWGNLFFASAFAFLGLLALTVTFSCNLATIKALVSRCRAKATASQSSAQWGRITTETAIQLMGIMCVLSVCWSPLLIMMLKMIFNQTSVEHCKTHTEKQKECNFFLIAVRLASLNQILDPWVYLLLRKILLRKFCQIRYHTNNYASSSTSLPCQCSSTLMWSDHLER
# Assay: Cellular in vitro assay for determining EP3 receptor activity (human EP3 cell line, sulprostone-stimulated calcium luminescence)
# Type: cell-based
# Settings: CHO cells expressing human EP3 and mitochondrial Clytin; antagonist mode, sulprostone at EC50; read-out: EP3 CHO mtCLY ANTAG IC50
# Method: B-1. Cellular In Vitro Assay for Determining EP3 Receptor Activity
# The identification of antagonists of the EP3 receptor from humans and rats as well as the quantification of the activity of the compounds of the invention was carried out using recombinant cell lines. These cell lines originally derive from a hamsters ovary epithelial cell (Chinese Hamster Ovary, CHO K1, ATCC: American Type Culture Collection, Manassas, Va. 20108, USA). The test cell lines constitutively express the human or rat EP3 receptors. The naturally Gαi-coupled human and rat EP3 receptors were stably co-transfected with Gα16 into cells that are also stably transfected with a mitochondrial form of the calcium-sensitive photoproteins Clytin (human EP3) or Photina (rat EP3), which, after reconstitution with the cofactor coelenterazine, emit light when there are increases in free calcium concentrations (Nature 1992, 358, 325-327; Gene 1995, 153 (2), 273-274). The resulting EP3 receptor cells react to stimulation of the recombinantly expressed EP3 receptors by the agonist sulprostone with intracellular release of calcium ions, which can be quantified by the resulting photoprotein luminescence. Antagonists inhibit the receptor signaling, leading to reduced calcium release and luminescence. The bioluminescence of the cell lines is detected using a suitable luminometer (Trends Pharmacol. Sci. 1996, 17, 235-237).
# Human and Rat EP3 Cell Lines:
# On the day before the assay, the cells are plated out in culture medium (OptiMEM, 1% FCS, 2 mM glutamine, 10 mM HEPES, 5 μg/ml coelenterazine) in 384-well microtiter plates and kept in a cell incubator (96% humidity, 5% v/v CO2, 37° C.). On the day of the assay, test compounds in various concentrations are placed for 10 minutes in the wells of the microtiter plate before the agonist sulprostone at EC50 concentration is added. The resulting light signal is measured immediately in a luminometer. All concentrations are measured in quadruples.
row,Compound,IC50 [nM]
1,"Cc1ccc(-c2cn3nc(C(=O)NCC(O)C(F)(F)F)c(C4CC4)c3c(=O)[nH]2)cc1F (single isomer, unassigned; enantiomer1) [Example 1-160, 3-Cyclopropyl-6-(3-fluoro-4-methylphenyl)-4-oxo-N-(3,3,3-trifluoro-2-hydroxpropyl)-4,5-dihydropyrazolo[1,5-a]pyrazine-2-carboxamide (enantiomer1)]",3.55
2,"Cc1ccc(-c2cn3nc(C(=O)NC(C)c4ccc(O)cc4)cc3c(=O)[nH]2)cc1C (stereo not shown) [Example 1-137, 6-(3,4-Dimethylphenyl)-N-[1-(4-hydroxphenyl)ethyl]-4-oxo-5H-pyrazolo[1,5-a]pyrazine-2-carboxamide]",2.9
3,"Cc1c(C(=O)NCc2cccc(CN(C)C)c2)nn2c(C)c(-c3ccc4ccccc4c3)[nH]c(=O)c12 [Example 3-42, N-({3-[(Dimethylamino)methyl]phenyl}methyl)-3,7-dimethyl-6-(naphthalen-2-yl)-4-oxo-4,5-dihydropyrazolo[1,5-a]pyrazine-2-carboxamide]",4.9
4,"Cc1cc(-c2cn3nc(C(=O)NCC(C)(N)C(F)(F)F)c(C4CC4)c3c(=O)[nH]2)ccc1Cl (single isomer, unassigned) [6-321]",1.7
5,"COc1ccccc1C(C)NC(=O)c1cc2c(=O)[nH]c(-c3ccc4ccccc4c3)cn2n1 (stereo not shown) [Example 2-8, N-[1-(2-Methoxyphenyl)ethyl]-6-(2-naphthyl)-4-oxo-4,5-dihydropyrazolo[1,5-a]pyrazine-2-carboxamide]",1.2
6,COC[C@H](NC(=O)c1cc2c(=O)[nH]c(-c3ccc(C)c(C)c3)cn2n1)c1ccccc1 [6-50],1.3
7,"CN(C)C[C@@H](NC(=O)c1cc2c(=O)[nH]c(-c3ccc4ccccc4c3)cn2n1)c1ccccc1 [Example 1-38, N-[(1S)-2-(Dimethylamino)-1-phenylethyl]-6-(naphthalen-2-yl)-4-oxo-4,5-dihydropyrazolo[1,5-a]-pyrazine-2-carboxamide formic acid salt]",4.09
8,"Cc1cc(-c2cn3nc(C(=O)N[C@H](CCO)c4ccc(F)cc4)cc3c(=O)[nH]2)ccc1C(F)(F)F [Example 1-121, N-[(1R)-1-(4-Fluorophenyl)-3-hydroxpropyl]-6-[3-methyl-4-(trifluoromethyl)phenyl]-4-oxo-4,5-dihydropyrazolo[1,5-a]pyrazine-2-carboxamide]",4.18
9,Cc1c(C(=O)N[C@@H](c2ccc(F)cc2)C(C)(C)O)nn2c(C)c(-c3ccc4ccccc4c3)[nH]c(=O)c12 [6-604],1.85
10,Cc1ccc(-c2cn3nc(C(=O)N[C@H](CCO)c4ccc(F)cc4)c(C(F)(F)F)c3c(=O)[nH]2)cc1Cl [6-196],0.29
11,"O=C(NC(c1ccc(F)cc1)C1(O)CC1)c1nn2cc(-c3ccc(Cl)c(F)c3)[nH]c(=O)c2c1C1CC1 (single isomer, unassigned) [6-98]",0.68
12,"Cc1ccc(-c2cn3nc(C(=O)N[C@H](CCO)c4ccc(F)cc4)c(C#N)c3c(=O)[nH]2)cc1C [Example 1-58, 3-Cyano-6-(3,4-dimethylphenyl)-N-[(1R)-1-(4-fluorophenyl)-3-hydroxpropyl]-4-oxo-4,5-dihydropyrazolo[1,5-a]pyrazine-2-carboxamide]",1.5
13,CCN1CCC(NC(=O)c2nn3cc(-c4ccc(C)c(F)c4)[nH]c(=O)c3c2C2CC2)(C(F)(F)F)C1 (racemic) [6-404],5.95
14,"O=C(NC(c1ccc(F)cc1)C1(O)CC1)c1nn2cc(-c3ccc(Cl)c(F)c3)[nH]c(=O)c2c1C1CC1 (single isomer, unassigned) [6-97]",3.25
15,"C[C@@H](NC(=O)c1cc2c(=O)[nH]c(-c3ccc4c(c3)COCC4)cn2n1)c1ccc(F)cc1 [Example 1-112, 6-(3,4-Dihydro-1H-2-benzopyran-7-yl)-N-[(1R)-1-(4-fluorophenyl)ethyl]-4-oxo-4,5-dihydropyrazolo[1,5-a]pyrazine-2-carboxamide]",3.35
16,"Cc1cccc2ncc(-c3cn4nc(C(=O)NC5(c6ccc(Cl)cc6)CCC5)c(C(C)C)c4c(=O)[nH]3)cc12 [Example 4-50, N-[1-(4-Chlorophenyl)cyclobutyl]-6-(5-methylquinolin-3-yl)-4-oxo-3-(propan-2-yl)-4,5-dihydropyrazolo[1,5-a]pyrazine-2-carboxamide]",8.3
17,COC[C@@H](NC(=O)c1nn2cc(-c3ccc(C)c(Cl)c3)[nH]c(=O)c2c1C(F)(F)F)c1ccccc1 [6-177],0.67

# Further molecules by falling IC50, results first:
row,IC50 [nM],Compound
1,5.55,"Cc1c(C(=O)N[C@H](C)c2ccc(F)cc2)nn2c(C)c(-c3ccc4ccccc4c3)[nH]c(=O)c12 [Example 1-23, N-[(1R)-1-(4-Fluorophenyl)ethyl]-3,7-dimethyl-6-(naphthalen-2-yl)-4-oxo-4,5-dihydropyrazolo-[1,5-a]pyrazine-2-carboxamide]"
2,3.5,Cc1ccc(-c2cn3nc(C(=O)Nc4cccc(O)c4)c(C(F)(F)F)c3c(=O)[nH]2)cc1F [6-144]
3,3.43,Cc1ccc(-c2cn3nc(C(=O)N[C@@H](c4ccc(F)cc4)C(F)(F)CO)c(C)c3c(=O)[nH]2)c(F)c1F [6-413]
4,2.4,"COc1ccc(C(CCO)NC(=O)c2nn3c(C)c(-c4ccc5ccccc5c4)[nH]c(=O)c3c2C)cc1 (stereo not shown) [Example 3-37, N-[3-Hydroxy-1-(4-methoxyphenyl)propyl]-3,7-dimethyl-6-(2-naphthyl)-4-oxo-5H-pyrazolo[1,5-a]pyrazine-2-carboxamide]"
5,2.3,"Cc1ccc(-c2cn3nc(C(=O)NCC(C)(N)C(F)(F)F)c(C(F)(F)F)c3c(=O)[nH]2)cc1Cl (single isomer, unassigned) [6-171]"
6,1.95,Cc1ccc(-c2cn3nc(C(=O)N[C@H](CN4CC[C@H](F)C4)c4ccccc4)cc3c(=O)[nH]2)cc1F [6-643]
7,1.85,"COc1ccc(C(C)NC(=O)c2nn3c(C)c(-c4ccc5ccccc5c4)[nH]c(=O)c3c2C)cn1 (stereo not shown) [Example 3-38, N-[1-(6-Methoxy-3-pyridyl)ethyl]-3,7-dimethyl-6-(2-naphthyl)-4-oxo-5H-pyrazolo[1,5-a]pyrazine-2-carboxamide]"
8,1.5,"O=C(NCc1ccc(F)c(F)c1)c1cc2c(=O)[nH]c(-c3ccc4ccccc4c3)cn2n1 [Example 2-33, N-(3,4-Difluorbenzyl)-6-(2-naphthyl)-4-oxo-4,5-dihydropyrazolo[1,5-a]pyrazine-2-carboxamide]"
9,1.34,"Cc1c(C(=O)NCC(C)Cn2cccn2)nn2c(C)c(-c3ccc4ccccc4c3)[nH]c(=O)c12 (stereo not shown) [Example 3-7, 3,7-Dimethyl-N-[2-methyl-3-(1H-pyrazol-1-yl)propyl]-6-(2-naphthyl)-4-oxo-4,5-dihydropyrazolo[1,5-a]pyrazine-2-carboxamide]"
10,1.25,COCc1c(C(=O)N[C@@H](C)C2CC2)nn2cc(-c3ccc(Cl)c(C)c3)[nH]c(=O)c12 [6-622]
11,1.17,Cc1cc(-c2cn3nc(C(=O)NCC(C)(N)C(F)(F)F)c(C4CC4)c3c(=O)[nH]2)ccc1Cl (racemic) [6-319]
12,1.09,"CCn1nccc1C(C)NC(=O)c1nn2cc(-c3cnc4cccc(C)c4c3)[nH]c(=O)c2c1C(C)C (stereo not shown) [Example 4-34, N-[1-(1-Ethyl-1H-pyrazol-5-yl)ethyl]-3-isopropyl-6-(5-methylquinolin-3-yl)-4-oxo-4,5-dihydropyrazolo[1,5-a]pyrazine-2-carboxamide]"
13,0.88,Cc1ccc(-c2cn3nc(C(=O)N[C@H](CCO)c4ccc(F)cc4)cc3c(=O)[nH]2)cc1Cl [6-122]
14,0.84,Cc1cc(-c2cn3nc(C(=O)N[C@@H](C)C4CC4)c(C4CC4(F)F)c3c(=O)[nH]2)ccc1Cl (stereo partly shown) [6-550]

# Source: US20220324865A1 (Bayer Aktiengesellschaft, priority 2018, published 2022)
